Literature values in patent US20030162725A1, “Synergistic pharmaceutical combinations for treating obesity with EGCG” (priority 2002, published 2003).

Test system: mouse

## N[C@@H](Cc1c[nH]c2ccc(O)cc12)C(=O)O [5-HTP, 5-hydroxytryptophan]
i.p., species not restated (studies in the rat and mouse)
  LD50 i.p.: 1400 mg/kg
Per os in the mouse
  LD50 per os: 2500 mg/kg
